# Results taken from paper PMC12592420, “A mismatch in enzyme-redox partnerships underlies divergent cytochrome P450 activities between human hepatocytes and microsomes” (Communications Biology, 2025).
# Where “and” joins values, the source holds several entries; their conditions need not be identical. Identical values can stand only once.
# Key:
# [1] = in vitro; conditions: human, pH 7.4
# Procedure: (§1) Calculation and scaling of CLint,u was done using the equation below and 45 mg of microsomal protein per gram of liver. HLMCLint,u=ln2/x1/t1/2(min)xmLincubation/mgmicrosomalproteinx45mgmicrosomalprotein/gliverx21gliver/kg/Fuinc
# [2] = Free fraction in HLM incubation, equilibrium dialysis; assay type: in vitro ADME, human; conditions: for fu_HLM: fraction unbound, measured or estimated by in silico models of Fuinc
# [3] = Intrinsic permeability in Caco-2 cells with efflux inhibited; conditions: human, Caco-2
# [4] = system: rat hepatocytes; test: Free fraction in rat hepatocytes as surrogate for HH, equilibrium dialysis; assay type: in vitro ADME; conditions: fraction unbound, measured or estimated by in silico models of Fuinc
# [5] = in vitro; conditions: human; for CLint scaled at 1 µM: pH 7.4, NADPH_HLM_scaled_CLint,u
# Procedure: as §1
# [6] = physchem; conditions: pH 7.4
# [7] = in vitro; conditions: human, hepatocytes; for hepatocyte CLint at 1 µM: both; for CLint scaled at 1 µM: HH_scaled_CLint,u
# [8] = target: recombinant human CYP3A4 (Homo sapiens, UniProt P08684); test: Recombinant CYP panel, savolitinib CLint; assay type: in vitro ADME
# Sequence of recombinant human CYP3A4 (P08684 whole entry): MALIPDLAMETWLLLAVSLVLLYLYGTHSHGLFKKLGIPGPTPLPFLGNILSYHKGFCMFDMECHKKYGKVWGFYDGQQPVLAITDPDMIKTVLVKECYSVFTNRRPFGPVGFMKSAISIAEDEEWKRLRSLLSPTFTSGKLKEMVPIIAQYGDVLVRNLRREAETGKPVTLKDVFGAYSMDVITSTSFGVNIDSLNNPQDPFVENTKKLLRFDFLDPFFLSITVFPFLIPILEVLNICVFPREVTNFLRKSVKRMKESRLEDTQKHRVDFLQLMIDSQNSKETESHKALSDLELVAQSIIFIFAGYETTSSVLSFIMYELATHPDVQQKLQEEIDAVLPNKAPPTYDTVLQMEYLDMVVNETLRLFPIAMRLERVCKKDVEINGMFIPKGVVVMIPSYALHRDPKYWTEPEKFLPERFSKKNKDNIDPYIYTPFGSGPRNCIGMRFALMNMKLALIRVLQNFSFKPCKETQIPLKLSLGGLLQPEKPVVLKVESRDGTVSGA
# Procedure: (§2) […]
# (§3) The clearance of savolitinib was
# (§4) The average intrinsic clearance was
# (§5) concentrations (final 0.1 µM).
# [9] = target: recombinant human CYP2C19 (Homo sapiens, UniProt P33261); test: Recombinant CYP panel, savolitinib CLint; assay type: in vitro ADME; conditions: CYP2C19, inter-system extrapolation factors
# Sequence of recombinant human CYP2C19 (P33261 whole entry): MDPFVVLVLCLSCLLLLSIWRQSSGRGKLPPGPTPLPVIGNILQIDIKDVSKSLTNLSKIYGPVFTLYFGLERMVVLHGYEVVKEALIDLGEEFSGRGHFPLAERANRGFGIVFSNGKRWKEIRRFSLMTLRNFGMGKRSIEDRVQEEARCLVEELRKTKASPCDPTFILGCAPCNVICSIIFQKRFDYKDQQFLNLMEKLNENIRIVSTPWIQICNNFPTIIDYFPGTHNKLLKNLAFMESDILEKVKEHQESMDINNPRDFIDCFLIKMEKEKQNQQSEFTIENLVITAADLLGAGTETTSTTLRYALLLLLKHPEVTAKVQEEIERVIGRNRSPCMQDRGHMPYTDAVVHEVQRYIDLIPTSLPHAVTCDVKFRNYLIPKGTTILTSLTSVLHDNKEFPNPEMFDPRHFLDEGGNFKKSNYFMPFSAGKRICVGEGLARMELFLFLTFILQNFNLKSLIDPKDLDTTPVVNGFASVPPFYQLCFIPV
# Procedure: as §2, §3, §4, §5
# [10] = target: T1, recombinant human CYP1A2 (Homo sapiens, UniProt P05177); test: Recombinant CYP panel, savolitinib CLint; assay type: in vitro ADME
# T1 sequence (P05177 1-516): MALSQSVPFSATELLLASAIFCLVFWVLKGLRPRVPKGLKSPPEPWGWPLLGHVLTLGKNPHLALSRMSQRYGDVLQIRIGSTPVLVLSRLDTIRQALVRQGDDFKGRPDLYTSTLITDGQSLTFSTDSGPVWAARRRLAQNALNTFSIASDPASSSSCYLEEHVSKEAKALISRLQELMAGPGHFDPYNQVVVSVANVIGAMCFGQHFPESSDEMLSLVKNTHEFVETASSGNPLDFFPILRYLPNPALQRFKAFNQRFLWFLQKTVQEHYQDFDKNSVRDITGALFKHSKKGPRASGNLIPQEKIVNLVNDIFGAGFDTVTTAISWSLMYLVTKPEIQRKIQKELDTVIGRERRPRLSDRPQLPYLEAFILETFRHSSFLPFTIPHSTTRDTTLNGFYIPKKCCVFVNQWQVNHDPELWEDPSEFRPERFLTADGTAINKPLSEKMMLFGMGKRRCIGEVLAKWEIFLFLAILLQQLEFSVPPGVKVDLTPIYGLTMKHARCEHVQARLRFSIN
# Procedure: as §2, §3, §4, §5
# [11] = target: recombinant human CYP2D6 (Homo sapiens, UniProt P10635); test: Recombinant CYP panel, savolitinib CLint; assay type: in vitro ADME
# Sequence of recombinant human CYP2D6 (P10635 whole entry): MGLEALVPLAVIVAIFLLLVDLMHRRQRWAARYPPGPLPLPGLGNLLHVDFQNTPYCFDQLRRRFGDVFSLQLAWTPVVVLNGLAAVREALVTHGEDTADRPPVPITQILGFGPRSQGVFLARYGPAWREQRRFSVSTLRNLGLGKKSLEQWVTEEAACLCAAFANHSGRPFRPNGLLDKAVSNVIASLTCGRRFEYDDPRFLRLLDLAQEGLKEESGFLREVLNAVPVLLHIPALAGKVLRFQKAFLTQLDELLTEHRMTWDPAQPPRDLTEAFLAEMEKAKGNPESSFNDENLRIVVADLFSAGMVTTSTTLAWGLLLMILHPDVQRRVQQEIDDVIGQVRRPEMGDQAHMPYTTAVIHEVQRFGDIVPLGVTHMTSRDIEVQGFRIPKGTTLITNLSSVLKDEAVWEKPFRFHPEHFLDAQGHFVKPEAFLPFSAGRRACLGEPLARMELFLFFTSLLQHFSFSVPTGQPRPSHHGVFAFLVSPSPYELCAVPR
# Procedure: as §2, §3, §4, §5
# [12] = target: T2, recombinant human CYP2A6 (Homo sapiens, UniProt P11509); test: Recombinant CYP panel, savolitinib CLint; assay type: in vitro ADME
# T2 sequence (P11509 1-494): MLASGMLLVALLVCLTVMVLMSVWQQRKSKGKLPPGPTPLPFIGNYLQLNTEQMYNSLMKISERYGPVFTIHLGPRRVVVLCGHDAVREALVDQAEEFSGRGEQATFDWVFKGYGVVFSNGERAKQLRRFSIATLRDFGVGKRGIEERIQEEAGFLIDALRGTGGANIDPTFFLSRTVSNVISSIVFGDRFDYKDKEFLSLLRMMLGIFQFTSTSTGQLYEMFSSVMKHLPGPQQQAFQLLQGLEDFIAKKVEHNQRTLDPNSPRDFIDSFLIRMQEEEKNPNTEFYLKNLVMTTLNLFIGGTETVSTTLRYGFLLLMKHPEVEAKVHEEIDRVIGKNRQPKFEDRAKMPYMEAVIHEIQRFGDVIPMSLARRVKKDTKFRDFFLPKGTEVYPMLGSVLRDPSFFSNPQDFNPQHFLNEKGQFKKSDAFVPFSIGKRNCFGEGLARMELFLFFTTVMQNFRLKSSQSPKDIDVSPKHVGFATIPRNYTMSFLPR
# Procedure: as §2, §3, §4, §5
# [13] = target: recombinant human CYP3A5 (Homo sapiens, UniProt P20815); test: Recombinant CYP panel, savolitinib CLint; assay type: in vitro ADME
# Sequence of recombinant human CYP3A5 (P20815 whole entry): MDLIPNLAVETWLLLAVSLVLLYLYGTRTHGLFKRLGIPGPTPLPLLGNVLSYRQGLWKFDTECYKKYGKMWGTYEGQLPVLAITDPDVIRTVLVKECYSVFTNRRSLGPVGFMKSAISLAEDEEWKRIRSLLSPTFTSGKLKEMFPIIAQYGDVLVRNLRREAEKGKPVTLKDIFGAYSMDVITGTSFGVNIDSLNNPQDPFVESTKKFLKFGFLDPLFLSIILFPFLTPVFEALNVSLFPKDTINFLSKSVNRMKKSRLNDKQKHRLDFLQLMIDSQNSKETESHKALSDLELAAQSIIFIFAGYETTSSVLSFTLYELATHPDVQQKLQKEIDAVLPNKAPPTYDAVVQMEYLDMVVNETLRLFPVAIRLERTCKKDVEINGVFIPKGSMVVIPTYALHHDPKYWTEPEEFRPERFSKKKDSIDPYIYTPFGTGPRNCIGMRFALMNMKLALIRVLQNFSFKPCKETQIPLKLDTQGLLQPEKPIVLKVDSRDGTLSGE
# Procedure: as §2, §3, §4, §5
# [14] = cited from earlier work
# [15] = LogD pH 7.4, octanol/phosphate buffer; conditions: octanol/phosphate buffer, pH 7.4
# [16] = target: T3, CYP1A2-Cytb5R (Homo sapiens, UniProt P05177); test: Turnover by non-canonical recombinant CYP1A2-Cytb5R; assay type: in vitro ADME; conditions: noncanonical CYP1A2-Cytb5R
# T3 construct: purchased BioIVT (custom synthesis) CE00001 (CYP1A2), batch CPD034-1A2-30; host or cells: bactosomes
# T3 sequence (P05177 1-516): T1 sequence (P05177 1-516)
# Text: As commercial recombinant human CYPs co-express the individual CYP and reductase with an option to include cytochrome b5. A custom synthesis co-expressing CYP3A4 or CYP1A2 and Cytb5R plus cytochrome b5 was, therefore, ordered from BioIVT and the bactosomes were compared with canonical CYP-POR enzymes plus cytochrome b5.
# [17] = target: T4, recombinant CYP3A4-POR (Homo sapiens, UniProt P08684); test: Savolitinib incubation with recombinant CYP3A4-POR Supersomes; assay type: in vitro ADME; conditions: CYP3A4-POR 100 pmol/mL, 1 µM, 1 h (Fig. 2b)
# T4 construct: purchased 456202
# T4 sequence (P08684 whole entry): as the sequence (P08684 whole entry) above
# Procedure: For detailed comparisons between recombinant CYP1A2 and CYP3A4 (Fig. 2B, C), Supersomes were used (CYP1A2, catalogue number 456203, CYP3A4, catalogue number 456202). […] The concentration of savolitinib metabolites M2 and M4 formed were determined from standard curves obtained by spiking the appropriate concentrations of M2 and M4 into recombinant enzymes (in the absence of NADPH) and processing in the same way as the samples.
# [18] = Free savolitinib in incubation with 150 mg/mL bovine serum albumin; assay type: in vitro ADME; conditions: BSA final 150 mg/mL
# [19] = Free fraction in rat hepatocytes as surrogate for HH, equilibrium dialysis; assay type: in vitro ADME; conditions: rat hepatocytes (surrogate for human hepatocytes); printed as HH; rat hepatocytes used as surrogate
# [20] = healthy volunteers, cited from earlier work
# [21] = Incubations in human liver S9 + NADPH (same donor pool as HLM); assay type: in vitro ADME; conditions: S9 + NADPH, savolitinib 1 µM, 1 h (Fig. 6aii)
# [22] = system: human hepatocytes (HH); test: Savolitinib metabolite (M2, M4) formation in human hepatocytes, with and without CYP inhibitors; assay type: in vitro ADME; conditions: savolitinib 5 µM, 1 h, only peak above this level
# [23] = system: human hepatocytes (HH); test: as above; assay type: in vitro ADME; conditions: savolitinib 1 µM, intact HH
# Procedure: […]120millioncells/[…] […] Authentic standards (M2 and M4) were spiked into hepatocytes (at 1 million cells/mL) and used to construct standard curves. Control marker reactions (final 1 μM for each compound) specific for CYP1A2 (phenacetin to form paracetamol), CYP2C19 (S-mephenytoin to form 4-OH mephenytoin) and CYP2D6 (dextromethorphan to form dextrorphan) were incubated in the presence and absence of the specific inhibitors to confirm the expected enzyme inhibition. […] After a pre-incubation at 37 °C for 5 min, the reaction was started by adding the test compound. […] After centrifugation at 3000 × g for 10 min, 200 μL of the supernatant was mixed with 400 μL of water before analysis for metabolites.
# [24] = Incubations in HLM + NADPH from the same donor pool as S9; assay type: in vitro ADME, human; conditions: HLM (same donors as S9) + NADPH, savolitinib 1 µM, 1 h (Fig. 6aii)
# Text: Liver S9 (lot 1810001, pool of 50, Xenotech) and HLM (pool of 50, lot 1810003, Xenotech) from the same pool of donors were purchased from Xenotech.
# [25] = Metabolism of savolitinib in lysed hepatocytes + NADPH; assay type: in vitro ADME, human; conditions: savolitinib 1 µM, HH lysate + NADPH
# Procedure: HH in Leibovitz buffer were centrifuged at 11,250 × g for 5 min to pellet the cells. Taking care not to disturb the pellet, all the media was removed using a pipette. Ice-cold water was added and the mixture vortex-mixed to resuspend the cells and stored at −80 °C for 5 min followed by sonication for 10 min to lyse the cells. The resuspended lysate final volume was equivalent to a final cell concentration of 1 million cells/mL (the same concentration used for intact cells experiments) in […] phosphate buffer pH 7.4 and NADPH (final 1 mM). After pre-incubating for 5 min at 37 °C, the reaction (metabolism of savolitinib) in the lysate was initiated by adding savolitinib (final 1 µM). […] Authentic standards (M2 and M4) were spiked into hepatocyte lysate and used to construct standard curves. The acetonitrile/hepatocyte lysate mixtures were centrifuged at 3000 × g for 10 min and 50 µl of the supernatant was mixed with 300 µl of water and 3 µL was injected into the mass spectrometer for analysis by multiple reaction monitoring.
# [26] = Savolitinib metabolite (M2, M4) formation in NADPH-HLM (with BSA or cytosol where stated); assay type: in vitro ADME, human; set-up: [M4] / M2 average / M4 average: unit not given here; conditions: for M2 average: average of duplicate (Suppl. Fig. 1); for [M2]: savolitinib 1 µM
compound,measurement,setting,value
CC(=O)CC(c1ccccc1)c1c(O)c2ccccc2oc1=O (centres unmarked) [Warfarin],CLint scaled at 1 µM,[1]; microsomes,2.83 mL/min/kg
same,fu_HLM,[2],1
same,"Papp at 2 h, 10 µM",[3],60.7 ×10⁻⁶ cm/s
same,fu_ratHH,[4],0.791
same,CLint scaled at 1 µM,[5]; microsomes,4.16 mL/min/kg
same,logD,[6],0.902
same,hepatocyte CLint at 1 µM,[7],2.69 µL/min/1e6 cells
same,CLint scaled at 1 µM,[7],8.57 mL/min/kg
C[C@@H](c1ccc2nccn2c1)n1nnc2ncc(-c3cnn(C)c3)nc21 [Savolitinib],CLint,"[8]; CYP3A4, average of three",0.489 ± 0.0278 µL/min/pmol CYP
same,% contribution,"[8]; CYP3A4, inter-system extrapolation factors",83%
same,% contribution,[9],1.9%
same,% contribution,"[10]; CYP1A2, inter-system extrapolation factors",1.6%
same,CLint,"[10]; CYP1A2, only two experiments measurable",0.0386 µL/min/pmol CYP
same,CLint,"[11]; CYP2D6, average of three",0.309 ± 0.0010 µL/min/pmol CYP
same,% contribution,"[11]; CYP2D6, inter-system extrapolation factors",1.8%
same,% contribution,"[12]; CYP2A6, inter-system extrapolation factors",0.2%
same,CLint,"[12]; CYP2A6, only one experiment measurable",0.0148 µL/min/pmol CYP
same,% contribution,"[13]; CYP3A5, inter-system extrapolation factors",12%
same,CLint,"[13]; CYP3A5, only two experiments measurable",0.0939 µL/min/pmol CYP
same,microsomal CLint at 1 µM,[1]; human liver microsomes + NADH,1.6 µL/min/mg
same,CLint scaled at 1 µM,[1]; human liver microsomes,1.62 mL/min/kg
same,free in normal plasma,[14],29%
same,fu_HLM,[2],0.935
same,"fraction unbound at 4 h, 1 µM","[2]; human, human liver microsomes, pH 7.4",0.935
same,logD,[15],1.81
same,turnover (metabolite formation or disappearance of parent),[16],no detectable turnover
same,Percentage savolitinib remaining,[17],1.366% and 5.612% and 4.281%
same,"Papp at 2 h, 10 µM",[3],53.7 ×10⁻⁶ cm/s
same,free savolitinib,[18],17%
same,"fraction unbound at 4 h, 1 µM",[19],0.847
same,fu_ratHH,[4],0.847
same,microsomal CLint at 1 µM,"[5]; human liver microsomes + NADPH, pH 7.4",9.8 µL/min/mg
same,CLint scaled at 1 µM,"[5]; human liver microsomes, Fig. 4a,d",9.9 mL/min/kg
same,hepatocyte CLint at 1 µM,[7],1 µL/min/1e6 cells
same,CLint scaled at 1 µM,[7],2.98 mL/min/kg
same,"oxidation by aldehyde oxidase, share of the dose",[20],19 % of the dose
same,"oxidation/hydrolysis on the imidazopyridine moiety, share of the dose",[20],16 % of the dose
C[C@@H](c1ccc2nccn2c1)n1nnc2ncc(-c3cn[nH]c3)nc21 [Compound M2],[M2],[21],6.15 nM and 6.3 nM and 4.1 nM
same,metabolite peak by UV detection,[22],greater than 1%
same,[M2],"[23]; 5 min (Fig. 2a, 6cii)",1.4 nM and 2.2 nM and 2.25 nM
same,[M2],"[23]; 10 min (Fig. 2a, 6cii)",2.85 nM and 3.9 nM and 4.1 nM
same,[M2],"[23]; 20 min (Fig. 2a, 6cii)",6.15 nM and 6.85 nM and 7.4 nM
same,[M2],"[23]; 40 min (Fig. 2a, 6cii)",12.1 nM and 12.5 nM and 13.35 nM
same,[M2],"[23]; 60 min (Fig. 2a, 6cii)",15.75 nM and 16.75 nM and 16.5 nM
same,[M2],[24],12.05 nM and 12.7 nM and 9.9 nM
same,[M2],[25]; 0 min (Fig. 6cii),0.25 nM and 0.2 nM
same,[M2],[25]; 5 min (Fig. 6cii),1.7 nM and 2.55 nM and 1.8 nM
same,[M2],[25]; 10 min (Fig. 6cii),3.5 nM and 5.15 nM and 3.8 nM
same,[M2],[25]; 20 min (Fig. 6cii),6.7 nM and 10.4 nM and 7.3 nM
same,[M2],[25]; 40 min (Fig. 6cii),11.35 nM and 17.1 nM and 12.4 nM
same,[M2],[25]; 60 min (Fig. 6cii),15.15 nM and 22.05 nM and 17 nM
same,M2 average,"[26]; 60min, cytosol 0 mg/mL",12.95 and 12.75 and 12.25
same,M2 average,"[26]; 60min, cytosol 4 mg/mL",10.25 and 10.45 and 11.2
same,M2 average,"[26]; 60min, cytosol 10 mg/mL",7.45 and 7.9 and 8.9
same,[M2],[26]; 1 h (Fig. 2e),9.4 nM and 16.7 nM and 13.4 nM
same,[M2],"[26]; 60min, cytosol 0 mg/mL, single measurements (Suppl. Fig. 1)",13.1 and 12.8 and 12.6 and 12.9 and 11.7
same,[M2],"[26]; 60min, cytosol 4 mg/mL, single measurements (Suppl. Fig. 1)",10.4 and 10.1 and 10.6 and 10.3 and 10.9 and 11.5
same,[M2],"[26]; 60min, cytosol 10 mg/mL, single measurements (Suppl. Fig. 1)",7.5 and 7.4 and 8 and 7.8 and 8.5 and 9.3
same,"metabolite, share of the dose",[20]; N-demethylation to M2,60 % of the dose
